This note sets out measurements from patent publication US20250066369A1, “BICYCLIC PHTHALAZIN-1(2H)-ONE DERIVATIVES AND RELATED USES” (NodThera Limited, priority 2022, published 2025).

The test system of the assay is IL-1β release upon NLRP3 activation in peripheral blood mononuclear cells (PBMC). The experiment in a line: PBMC IC50 determination assay: inhibition of IL-1β release upon NLRP3 activation. It is filed as cell-based. Conditions: PBMC, PBMC primed with LPS 3 h, compound 30 min, stimulated with ATP (5 mM) or nigericin (10 μM) 1 h; IL-1β by ELISA (Protocol A) or HTRF (Protocol B). The procedure: PBMC IC50 determination assay. The compounds of the present disclosure were tested for their inhibitory activity against IL-1β release upon NLRP3 activation in peripheral blood mononuclear cells (PBMC).
Protocol A. PBMC were isolated from buffy coats by density gradient centrifugation on Histopaque-1077 (Sigma, cat no. 10771). Isolated cells were seeded into the wells of a 96-well plate and incubated for 3 h with lipopolysaccharide (LPS). Following medium exchange, the compounds of the present disclosure were added (a single compound per well) and the cells were incubated for 30 min. Next, the cells were stimulated either with ATP (5 mM) or nigericin (10 μM) for 1 h and the cell culture media from the wells were collected for further analysis.
The release of IL-1β into the media was determined by a quantitative detection of IL-1β in the media using an IL-1β enzyme-linked immunosorbent assay (ELISA) Ready-SET-Go!, eBioscience cat. No. 88-7261-88. Briefly, in a first step, high affinity binding plates (Corning, Costar 9018 or NUNC Maxisorp Cat No. 44-2404) were coated overnight at 4° C. with specific capture antibody included in the kit (anti-human IL-1β ref. 14-7018-68). Subsequently, plates were blocked with blocking buffer for 1 h at room temperature (rt) and after washing with a buffer (PBS with 0.05% Tween-20) incubated with protein standard and culture media. After 2 h of incubation at rt, plates were washed and incubated with biotinylated detection antibody included in the kit (anti-human IL-1β Biotin ref 33-7110-68) for 1 h at rt. Plates were washed and incubated with HRP-streptavidin for 30 min at rt and washed again. The signal was developed after addition of 3,3′,5,5′-tetramethylbenzidine-peroxidase (TMB) until colour appeared and the reaction was stopped by 2 M H2SO4. A microplate spectrophotometer (BioTek) was used to detect signals with 450 nm. The detection range of IL-1β ELISA was […].
Protocol B. PBMC were isolated from buffy coats by density gradient centrifugation on Histopaque-1077 (Sigma, cat no. 10771). Isolated cells were seeded into the wells (280,000 cells/well) of a 96-well plate and incubated for 3 h with lipopolysaccharide (LPS, 1 μg/mL diluted 1000× from a 1 mg/mL stock solution). The compounds of the present disclosure were added (a single compound per well) and the cells were incubated for 30 min. Next, the cells were stimulated with ATP (5 mM final concentration diluted 20× from a 100 mM stock solution) for 1 h and the cell culture media from the wells were collected for further analysis.
The release of IL-1β into the media was determined by quantitative detection of IL-1β in the media using HTRF®, CisBio cat. No. 62HIL1BPEH. Briefly, cell culture supernatant were dispensed directly into the assay plate containing antibodies labelled with the HTRF® donor and acceptor. A microplate spectrophotometer (BMG) was used to detect signals at 655 nm and 620 nm. The detection range of IL-1β HTRF® was 39-6500 μg/mL.
(An ELISA detects its analyte on a solid surface through an enzyme-linked reagent.)

Usually IC50 stands for the point on the concentration scale where inhibition reaches its midpoint. High values mean lower potency, low ones higher potency. The compound `CC(C)c1nn(CC(=O)Nc2ncco2)c(=O)c2cn(C(C)C)nc12` [Compound 72, 2-(2,7-Diisopropyl-4-oxo-pyrazolo[3,4-d]pyridazin-5-yl)-N-oxazol-2-yl-acetamide] registered an IC50 of 100 to 1000 nM. `CC(C)c1nn(CC(=O)Nc2ncco2)c(=O)c2cn(C3CC3)nc12` [Compound 73, 2-(2-Cyclopropyl-7-isopropyl-4-oxo-2,4-dihydro-5H-pyrazolo[3,4-d]pyridazin-5-yl)-N-(oxazol-2-yl)acetamide]: the IC50 lay in the range of 100 to 1000 nM. Next, `CC(C)c1nn(CC(=O)N[C@H]2C[C@@](C)(O)C2)c(=O)c2sc(Br)cc12` [Compound 74, 2-(2-Bromo-4-isopropyl-7-oxothieno[2,3-d]pyridazin-6(7H)-yl)-N-(cis-3-hydroxy-3-methylcyclobutyl)acetamide]: 1000 to 3000 nM; `CC(C)c1nn(CC(=O)Nc2ncccn2)c(=O)c2sc(C3CC3)cc12` [Compound 75, 2-(2-Cyclopropyl-4-isopropyl-7-oxothieno[2,3-d]pyridazin-6(7H)-yl)-N-(pyrimidin-2-yl)acetamide]: 100 to 1000 nM; `CC(C)c1nn(CC(=O)Nc2ncco2)c(=O)c2sc(C3CC3)cc12` [Compound 76, 2-(2-Cyclopropyl-4-isopropyl-7-oxothieno[2,3-d]pyridazin-6(7H)-yl)-N-(oxazol-2-yl)acetamide]: 100 to 1000 nM.

Turning to `CCNc1cc2c(C(C)C)nn(CC(=O)Nc3ncccn3)c(=O)c2s1` [Compound 78, 2-(2-(Ethylamino)-4-isopropyl-7-oxothieno[2,3-d]pyridazin-6(7H)-yl)-N-(pyrimidin-2-yl)acetamide], the half-maximal inhibitory concentration (IC50) was no more than 100 nM.

For `CC(C)c1nn(CC(=O)Nc2ncco2)c(=O)c2cc(C3CC3)oc12` [Compound 79, 2-(2-Cyclopropyl-7-isopropyl-4-oxofuro[2,3-d]pyridazin-5(4H)-yl)-N-(oxazol-2-yl)acetamide], the IC50 was 100 to 1000 nM.

In turn, `CCOC(=O)c1cnc(NC(=O)Cn2nc(C(C)C)c3oc(C4CC4)cc3c2=O)nc1` [Compound 80, Ethyl 2-(2-(2-cyclopropyl-7-isopropyl-4-oxofuro[2,3-d]pyridazin-5(4H)-yl)acetamido)pyrimidine-5-carboxylate] gave an IC50 of 100 to 1000 nM.

Regarding `CC(C)c1nn(CC(=O)N[C@H]2C[C@@](C)(O)C2)c(=O)c2cc(C3CC3)oc12` [Compound 81, 2-(2-Cyclopropyl-7-isopropyl-4-oxofuro[2,3-d]pyridazin-5(4H)-yl)-N-((1s,3s)-3-hydroxy-3-methylcyclobutyl)acetamide], the IC50 was 100 to 1000 nM. As to `Cc1nn(CC(=O)Nc2ncccn2)c(=O)c2cc(C3CC3)oc12` [Compound 82, 2-{2-Cyclopropyl-7-methyl-4-oxo-4H,5H-furo[2,3-d]pyridazin-5-yl}-N-(pyrimidin-2-yl)acetamide], the IC50 lay in the range of 100 to 1000 nM. For `Cc1cnc(NC(=O)Cn2nc(C)c3oc(C4CC4)cc3c2=O)nc1` [Compound 83, 2-{2-Cyclopropyl-7-methyl-4-oxo-4H,5H-furo[2,3-d]pyridazin-5-yl}-N-(5-methylpyrimidin-2-yl)acetamide], the IC50 was in the range of 100 to 1000 nM. Next, `Cc1nn(CC(=O)Nc2ncc(Cl)cn2)c(=O)c2cc(C3CC3)oc12` [Compound 84, N-(5-Chloropyrimidin-2-yl)-2-{2-cyclopropyl-7-methyl-4-oxo-4H,5H-furo[2,3-d]pyridazin-5-yl}acetamide]: 100 to 1000 nM; `Cc1nn(CC(=O)N[C@H]2C[C@@](C)(O)C2)c(=O)c2cc(C3CC3)oc12` [Compound 85, 2-{2-Cyclopropyl-7-methyl-4-oxo-4H,5H-furo[2,3-d]pyridazin-5-yl}-N-[cis-3-hydroxy-3-methylcyclobutyl]acetamide]: 1000 to 3000 nM; `CCOC(=O)c1cnc(NC(=O)Cn2nc(C)c3cc(C4CC4)sc3c2=O)nc1` [Compound 86, Ethyl 2-(2-{2-cyclopropyl-4-methyl-7-oxo-6H,7H-thieno[2,3-d]pyridazin-6-yl}acetamido)pyrimidine-5-carboxylate]: 100 to 1000 nM.

`Cc1nn(CC(=O)Nc2ncco2)c(=O)c2cc(C3CC3)oc12` [Compound 87, 2-{2-cyclopropyl-7-methyl-4-oxo-4H,5H-furo[2,3-d]pyridazin-5-yl}-N-(1,3-oxazol-2-yl)acetamide]: the IC50 lay within 1000 to 3000 nM. Regarding `Cc1nn(CC(=O)Nc2ncccn2)c(=O)c2sc(C3CC3)cc12` [Compound 88, 2-{2-Cyclopropyl-4-methyl-7-oxo-6H,7H-thieno[2,3-d]pyridazin-6-yl}-N-(pyrimidin-2-yl)acetamide], the IC50 lay in the range of 100 to 1000 nM. With `CCc1nn(CC(=O)Nc2ncccn2)c(=O)c2cc(C3CC3)oc12` [Compound 89, 2-{2-cyclopropyl-7-ethyl-4-oxo-4H,5H-furo[2,3-d]pyridazin-5-yl}-N-(pyrimidin-2-yl)acetamide], the IC50 is 100 to 1000 nM.

The compound `CCOC(=O)c1cnc(NC(=O)Cn2nc(C)c3oc(C4CC4)cc3c2=O)nc1` [Compound 90, Ethyl 2-(2-{2-cyclopropyl-7-methyl-4-oxo-4H,5H-furo[2,3-d]pyridazin-5-yl}acetamido)pyrimidine-5-carboxylate] showed an IC50 of 100 to 1000 nM. For `Cc1nn(CC(=O)Nc2ncc(C#N)cn2)c(=O)c2cc(C3CC3)oc12` [Compound 91, N-(5-Cyanopyrimidin-2-yl)-2-{2-cyclopropyl-7-methyl-4-oxo-4H,5H-furo[2,3-d]pyridazin-5-yl}acetamide] the value was 100 to 1000 nM. For `CCOC(=O)Cc1cnc(NC(=O)Cn2nc(C)c3oc(C4CC4)cc3c2=O)nc1` [Compound 92, Ethyl 2-[2-(2-{2-cyclopropyl-7-methyl-4-oxo-4H,5H-furo[2,3-d]pyridazin-5-yl}acetamido)pyrimidin-5-yl]acetate] the value was 100 to 1000 nM. For `CC(C)Nc1cc2c(C(C)C)nn(CC(=O)Nc3ncccn3)c(=O)c2s1` [Compound 93, 2-[7-Oxo-4-(propan-2-yl)-2-[(propan-2-yl)amino]-6H,7H-thieno[2,3-d]pyridazin-6-yl]-N-(pyrimidin-2-yl)acetamide] the value was 100 to 1000 nM; for `CNc1cc2c(C(C)C)nn(CC(=O)Nc3ncccn3)c(=O)c2s1` [Compound 94, 2-[2-(Methylamino)-7-oxo-4-(propan-2-yl)-6H,7H-thieno[2,3-d]pyridazin-6-yl]-N-(pyrimidin-2-yl)acetamide], no more than 100 nM. Take `CC(C)c1nn(CC(=O)Nc2ncccn2)c(=O)c2sc(NCC(F)F)cc12` [Compound 95, 2-{2-[(2,2-Difluoroethyl)amino]-7-oxo-4-(propan-2-yl)-6H,7H-thieno[2,3-d]pyridazin-6-yl}-N-(pyrimidin-2-yl)acetamide]: the IC50 was 100 to 1000 nM. Next, `COCCNc1cc2c(C(C)C)nn(CC(=O)Nc3ncccn3)c(=O)c2s1` [Compound 96, 2-{2-[(2-Methoxyethyl)amino]-7-oxo-4-(propan-2-yl)-6H,7H-thieno[2,3-d]pyridazin-6-yl}-N-(pyrimidin-2-yl)acetamide]: 10000 to 50000 nM; `CCN(C)c1cc2c(C(C)C)nn(CC(=O)Nc3ncccn3)c(=O)c2s1` [Compound 97, 2-{2-[Ethyl(methyl)amino]-7-oxo-4-(propan-2-yl)-6H,7H-thieno[2,3-d]pyridazin-6-yl}-N-(pyrimidin-2-yl)acetamide]: 3000 to 10000 nM. `CCNc1cc2c(C)nn(CC(=O)Nc3ncccn3)c(=O)c2s1` [Compound 98, 2-[2-(Ethylamino)-4-methyl-7-oxo-6H,7H-thieno[2,3-d]pyridazin-6-yl]-N-(pyrimidin-2-yl)acetamide]: the IC50 lay within 1000 to 3000 nM. For `CCCc1cc2c(C(C)C)nn(CC(=O)Nc3ncccn3)c(=O)c2s1` [Compound 99, 2-[7-Oxo-4-(propan-2-yl)-2-propyl-6H,7H-thieno[2,3-d]pyridazin-6-yl]-N-(pyrimidin-2-yl)acetamide] the value was 100 to 1000 nM; for `CC(C)c1nn(CC(=O)Nc2ncccn2)c(=O)c2sc(NCC(F)(F)F)cc12` [Compound 100, 2-[7-Oxo-4-(propan-2-yl)-2-[(2,2,2-trifluoroethyl)amino]-6H,7H-thieno[2,3-d]pyridazin-6-yl]-N-(pyrimidin-2-yl)acetamide], 1000 to 3000 nM.
